Like-named read-outs stand apart in the source and are kept apart here.
Assays:
Phaedon cochleariae = assay: Phaedon test (PHAECO spray treatment); format: in vivo; details: Chinese cabbage leaf discs, after 7 days
Procedure, shortened: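 Larval mortality was assessed 7 days after Phaedon cochleariae larvae were placed on dried, spray-treated Brassica pekinensis leaf discs. The formulation was an acetone/dimethylformamide concentrate with alkylaryl polyglycol ether emulsifier, diluted in emulsifier-containing water. Results are given as % kill, from 0 (no larvae dead) to 100 (all dead).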

logP (HPLC-MS) = format: physicochemical
Tetranychus urticae = assay: Tetranychus test, OP-resistant (TETRUR spray treatment); format: in vivo; details: bean leaf discs, after 6 days
Procedure, shortened: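 Bean leaf discs infested with all stages of OP-resistant T. urticae sprayed with compound formulated in acetone/DMF plus alkylaryl polyglycol ether emulsifier, diluted in water. Efficacy (% mites killed) scored after 6 days.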

Spodoptera frugiperda = Spodoptera frugiperda test (SPODFR spray treatment); format: in vivo; details: maize leaf discs, after 7 days
Procedure, shortened: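 Mortality read-out at 7 days, given as % efficacy, where 100% means every caterpillar dead and 0% none. Caterpillars were placed on dried maize leaf discs that had been sprayed with test formulation. That formulation was an acetone/dimethylformamide concentrate diluted in emulsifier-containing water.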

Myzus persicae = assay: Myzus test (MYZUPE spray treatment); format: in vivo; details: Chinese cabbage leaf discs, after 6 days
Description: Myzus Test (MYZUPE Spray Treatment) Solvent: 78 parts by weight of acetone • • 1.5 parts by weight of dimethylformamide Emulsifier: 0.5 part by weight of alkylaryl polyglycol ether To produce an appropriate active ingredient formulation, 1 part by weight of active ingredient is mixed with the stated amounts of solvent and emulsifier, and the concentrate is diluted with emulsifier-containing water to the desired concentration. Leaf discs of Chinese cabbage (Brassica pekinensis) infested by all stages of the green peach aphid (Myzus persicae) are sprayed with an active ingredient formulation of the desired concentration. After 6 days, the efficacy in % is determined. 100% means that all of the aphids have been killed; 0% means that none of the aphids have been killed.

Lucilia cuprina larvae = assay: Lucilia cuprina test (LUCICU); format: in vivo; details: application rate 100 ppm; treated horse meat; after 2 days
Description: (§1) Lucilia cuprina Test (LUCICU) Solvent: dimethyl sulphoxide To prepare an appropriate active ingredient formulation, 10 mg of active ingredient are mixed with 0.5 ml of dimethyl sulphoxide and the concentrate is diluted with water to the desired concentration. Vessels containing horse meat treated with the active ingredient formulation of the desired concentration are populated with about 20 Lucilia cuprina larvae. After 2 days, the kill in % is determined. 100% means that all of the larvae have been killed; 0% means that none of the larvae have been killed.

Boophilus microplus = Boophilus microplus test (BOOPMI injection); format: in vivo; details: application rate 20 μg/animal; injected into the abdomen; after 7 days
Description: Boophilus microplus Test (BOOPMI Injection) Solvent: dimethyl sulphoxide To prepare an appropriate active ingredient formulation, 10 mg of active ingredient are mixed with 0.5 ml of solvent and the concentrate is diluted with solvent to the desired concentration. The active ingredient solution is injected into the abdomen (Boophilus microplus), and the animals are transferred into dishes and stored in a climate-controlled room. After 7 days, the efficacy in % is determined. The activity is assessed by laying of fertile eggs. 100% means that none of the ticks has laid any fertile eggs.

adult Musca domestica = assay: Musca domestica test (MUSCDO); format: in vivo; details: application rate 100 ppm; treated sponge; after 2 days
Description: as §1, with “Musca domestica” for “Lucilia cuprina”, “(MUSCDO)” for “(LUCICU)”, “a sponge” for “horse meat”, “adult Musca domestica.” for “about 20 Lucilia cuprina larvae.”, “determined” for “determined.”, “flies” for “larvae”

Ctenocephalides felis = Ctenocephalides felis oral (CTECFE); format: in vivo; details: application rate 100 ppm in citrated cattle blood; after 2 days
Description: Ctenocephalides felis Oral ([…]) Solvent: 1 part by weight of dimethyl sulphoxide For the purpose of preparing an appropriate active ingredient formulation, 10 mg of active ingredient are mixed with 0.5 ml of dimethyl sulphoxide. A portion of the concentrate is diluted with citrated cattle blood, and the desired concentration is prepared. About 20 unfed adult fleas (Ctenocephalides felis) are placed into a chamber which is closed at the top and bottom with gauze. A metal cylinder whose bottom end is closed with Parafilm is placed onto the chamber. The cylinder contains the blood/active ingredient formulation, which can be imbibed by the fleas through the Parafilm membrane. After 2 days, the kill in % is determined 100% means that all of the fleas have been killed; 0% means that none of the fleas have been killed.

[1] = HPLC, reversed-phase column (C18), acidic range pH 2.7, acetonitrile (0.1% formic acid)/water gradient, 43° C., calibration with unbranched alkan-2-ones
[2] = HPLC, reversed-phase column (C18), 43° C., acidic range pH 2.7, EEC directive 79/831 Annex V.A8, two values = both regioisomers (G = N)

| log p (logP (HPLC-MS); [1]) | chromatographic logP (logP (HPLC-MS); HPLC, reversed-phase column (C18), acidic range pH 2.7, acetonitrile (0.1% formic acid)/water gradient, 43° C., calibration with unbranched alkan-2-ones, read-out: log p) | chromatographic logP (logP (HPLC-MS); HPLC-MS) | log p (logP (HPLC-MS); [2]) | chromatographic logP (logP (HPLC-MS); HPLC, reversed-phase column (C18), 43° C., acidic range pH 2.7, EEC directive 79/831 Annex V.A8, two values = both regioisomers (G = N), read-out: log p) | Structure (SMILES) | efficacy in % (Phaedon cochleariae; application rate 500 g/ha) | efficacy in % (Tetranychus urticae; application rate 500 g/ha) | efficacy in % (Spodoptera frugiperda; application rate 500 g/ha) | efficacy in % (Myzus persicae; application rate 500 g/ha) | efficacy in % (Phaedon cochleariae; application rate 100 g/ha) | efficacy in % (Tetranychus urticae; application rate 100 g/ha) | efficacy (kill in %) (Lucilia cuprina larvae) | efficacy (laying of fertile eggs) (Boophilus microplus) | efficacy in % (Spodoptera frugiperda; application rate 100 g/ha) | efficacy (kill in %) (adult Musca domestica) | efficacy (kill in %) (Ctenocephalides felis) | pest or weed control at 100 g/ha (Phaedon cochleariae; Phaedon cochleariae, foliar, 168 h, application rate 100 g/ha, read-out: efficacy in %) | pest or weed control at 500 g/ha (Phaedon cochleariae; Phaedon cochleariae, foliar, 168 h, application rate 500 g/ha, read-out: efficacy in %) | efficacy in % (Myzus persicae; application rate 100 g/ha) |
| --- | --- | --- | --- | --- | --- | --- | --- | --- | --- | --- | --- | --- | --- | --- | --- | --- | --- | --- | --- |
| 3.70 |  |  |  |  | CCn1c(C(=O)NC(c2ccc(F)c(Br)c2)C(F)(F)F)cc2cc(C(=O)NC3CC3)c(C)cc21 (stereo not drawn) [Compound 190] |  |  |  |  | 100% | 100% | 100% | 100% | 100% | 100% | 100% |  |  |  |
| 4.09 |  |  |  |  | CCn1c(C(=O)NC(c2cc(Cl)cc(Cl)c2)C(F)(F)F)cc2cc(C(=O)NC3(C#N)CC3)c(C)cc21 (stereo not drawn) [Compound 195] |  |  |  |  | 100% | 100% | 100% | 100% | 100% | 100% | 100% |  |  |  |
| 4.43 |  |  |  |  | CCn1c(C(=O)NC(c2cc(Cl)c(Cl)c(Cl)c2)C(F)(F)F)cc2cc(C(=O)NC3(C#N)CC3)c(Cl)cc21 (stereo not drawn) [Compound 275] |  |  |  |  | 100% | 100% | 100% | 100% | 100% | 100% | 100% |  |  |  |
|  |  |  | 3.74 |  | C=CCn1c(C(=O)NC(c2cccc(C(F)(F)F)c2)C(F)(F)F)cc2cc(C(=O)NC3(C#N)CC3)c(Cl)cc21 (stereo not drawn) [Compound 283] |  |  |  |  | 100% | 100% | 100% | 100% | 100% | 90% | 100% |  |  |  |
|  |  |  | 3.87 |  | CC#CCn1c(C(=O)NC(c2cccc(C(F)(F)F)c2)C(F)(F)F)cc2cc(C(=O)NC3(C#N)CC3)c(Cl)cc21 (stereo not drawn) [Compound 285] |  |  |  |  | 100% | 100% | 100% | 100% | 100% | 90% | 100% |  |  |  |
|  |  |  | 4.03 |  | CCCn1c(C(=O)NC(c2cccc(C(F)(F)F)c2)C(F)(F)F)cc2cc(C(=O)NC3(C#N)CC3)c(Cl)cc21 (stereo not drawn) [Compound 288] |  |  |  |  | 100% | 100% | 100% | 100% | 100% | 100% | 100% |  |  |  |
|  |  | 3.48 |  | 3.48 | O=C(NC1CC1)c1cc2nc(C(=O)NC(c3cccc(C(F)(F)F)c3)C(F)(F)F)n(C3CC3)c2cc1Cl (stereo not drawn) [Compound 312, 6-chloro-N^5,1-dicyclopropyl-N^2-{2,2,2-trifluoro-1-[3-(trifluoromethyl)phenyl]ethyl}-1H-benzimidazole-2,5-dicarboxamide] |  |  | 100% | 100% |  |  |  |  |  |  |  |  | 100% | 100% |

Further lines, the molecule ahead of its results:

| Structure (SMILES) | log p (logP (HPLC-MS); [1]) | chromatographic logP (logP (HPLC-MS); HPLC, reversed-phase column (C18), acidic range pH 2.7, acetonitrile (0.1% formic acid)/water gradient, 43° C., calibration with unbranched alkan-2-ones, read-out: log p) | chromatographic logP (logP (HPLC-MS); HPLC-MS) | log p (logP (HPLC-MS); [2]) | chromatographic logP (logP (HPLC-MS); HPLC, reversed-phase column (C18), 43° C., acidic range pH 2.7, EEC directive 79/831 Annex V.A8, two values = both regioisomers (G = N), read-out: log p) | efficacy in % (Phaedon cochleariae; application rate 500 g/ha) | efficacy in % (Tetranychus urticae; application rate 500 g/ha) | efficacy in % (Spodoptera frugiperda; application rate 500 g/ha) | efficacy in % (Myzus persicae; application rate 500 g/ha) | efficacy in % (Phaedon cochleariae; application rate 100 g/ha) | efficacy in % (Tetranychus urticae; application rate 100 g/ha) | efficacy (kill in %) (Lucilia cuprina larvae) | efficacy (laying of fertile eggs) (Boophilus microplus) | efficacy in % (Spodoptera frugiperda; application rate 100 g/ha) | efficacy (kill in %) (adult Musca domestica) | efficacy (kill in %) (Ctenocephalides felis) | pest or weed control at 100 g/ha (Phaedon cochleariae; Phaedon cochleariae, foliar, 168 h, application rate 100 g/ha, read-out: efficacy in %) | pest or weed control at 500 g/ha (Phaedon cochleariae; Phaedon cochleariae, foliar, 168 h, application rate 500 g/ha, read-out: efficacy in %) | efficacy in % (Myzus persicae; application rate 100 g/ha) |
| --- | --- | --- | --- | --- | --- | --- | --- | --- | --- | --- | --- | --- | --- | --- | --- | --- | --- | --- | --- |
| C#CCn1c(C(=O)NC(c2cccc(Cl)c2)C(F)(F)F)cc2cc(C(=O)NC3CC3)c(Cl)cc21 (stereo not drawn) [Compound 5] | 3.45 |  |  |  |  | 100% | 100% | 100% | 90% |  |  |  |  |  |  |  |  |  |  |
| Cn1c(C(=O)NC(c2ccc(F)c(C(F)(F)F)c2)C(F)(F)F)cc2cc(C(=O)NC3(C#N)CC3)c(Cl)cc21 (stereo not drawn) [Compound 50] | 3.52 |  |  |  |  |  |  |  |  | 100% | 100% | 100% | 100% | 100% | 100% | 100% |  |  |  |
| Cn1c(C(=O)NC(c2ccc(F)c(Br)c2)C(F)(F)F)cc2cc(C(=O)NC3(C#N)CC3)c(Cl)cc21 (stereo not drawn) [Compound 52] | 3.44 |  |  |  |  |  |  |  |  | 100% | 100% | 100% | 100% | 100% | 100% | 100% |  |  |  |
| C#CCn1c(C(=O)NC(c2cccc(C(F)(F)F)c2)C(F)(F)F)cc2cc(C(=O)NC3(C#N)CC3)c(Cl)cc21 (stereo not drawn) [Compound 57, 6-chloro-N^5-(1-cyanocyclopropyl)-1-(prop-2-yn-1-yl)-N^2-{2,2,2-trifluoro-1-[3-(trifluoromethyl)phenyl]ethyl}-1H-indole-2,5-dicarboxamide] |  | 3.49 | 3.49 |  |  |  |  |  |  |  | 100% | 100% | 100% | 100% | 100% | 100% | 100% |  |  |
| C#CCn1c(C(=O)NC(c2ccc(F)c(C(F)(F)F)c2)C(F)(F)F)cc2cc(C(=O)NC3(C#N)CC3)c(Cl)cc21 (stereo not drawn) [Compound 61] | 3.65 |  |  |  |  |  |  |  |  | 100% | 100% | 100% | 100% | 100% | 100% | 100% |  |  |  |
| C#CCn1c(C(=O)NC(c2ccc(F)c(Br)c2)C(F)(F)F)cc2cc(C(=O)NC3(C#N)CC3)c(Cl)cc21 (stereo not drawn) [Compound 62] | 3.57 |  |  |  |  |  |  |  |  | 100% | 90% | 100% | 100% | 100% | 80% | 100% |  |  |  |
| C#CCn1c(C(=O)NC(c2ccc(F)c(Cl)c2)C(F)(F)F)cc2cc(C(=O)NC3CC3)c(Cl)cc21 (stereo not drawn) [Compound 63] | 3.57 |  |  |  |  |  |  |  |  | 100% | 100% | 100% | 100% | 100% | 100% | 100% |  |  |  |
| CCn1c(C(=O)NC(c2ccc(F)c(C(F)(F)F)c2)C(F)(F)F)cc2cc(C(=O)NC3CC3)c(C)cc21 (stereo not drawn) [Compound 188] | 3.76 |  |  |  |  |  |  |  |  | 100% | 100% | 100% | 100% | 100% | 100% | 100% |  |  |  |
| N#CCn1c(C(=O)NC(c2ccc(F)c(C(F)(F)F)c2)C(F)(F)F)nc2cc(C(=O)NC3CC3)c(Cl)cc21 (stereo not drawn) [Compound 301] |  |  |  |  |  | 100% | 90% | 100% | 90% |  |  |  |  |  |  |  |  |  |  |
